# Results reported in US4112228A, “7-(D-α-Hydroxy-2-arylacetamido)-3-(2-carboxyalkyl-2,3-dihydro-s-tri azolo-[4,3-b]pyridazin-3-on-6-ylthiomethyl)-3-cephem-4-carboxylic acids and derivatives” (priority 1977, dated 1978).
# Read-outs that look alike come from different tables or passages of the source.
# What was measured:
# [1] = Nephrotoxicity test in rabbits; conditions: 100 mg./kg. (iv)
# [2] = test system: Pr. morganii; assay: MIC by Steers' agar dilution method; conditions: Morganella morganii
# [3] = test system: Sal. anthracis; assay: microbe, parasite or virus in culture; format: cell-based
# [4] = test system: Pr. rettgeri; assay: MIC by Steers' agar dilution method; conditions: Providencia rettgeri
# [5] = test system: B. anthracis; assay: microbe, parasite or virus in culture; format: cell-based; conditions: Bacillus anthracis
# [6] = Blood levels in mice after subcutaneous administration; format: in vivo; conditions: mouse, read-out: Blood level; for concentration at 0.25 h: 15'; for concentration at 0.5 h: 30'; for concentration at 1 h: 60'; for concentration at 2 h: 120'
# Protocol: Groups of mice were administered subcutaneously graded doses of 40, 20 and 10 mg./kg..
# [7] = Stability in solution (remaining activity by paper disc assay); format: physicochemical; conditions: for Remaining Activity (%): 0 days; for remaining at 48 h: 2 days; for remaining at 72 h: 3 days; for remaining at 168 h: 7 days
# Protocol: Stability of BB-[…] was determined in both a 10% and an 0.02% solution. The stability is indicated as the relative activity remaining in the test solution at given periods to the initial solution. The activity was assayed using paper discs on B. subtilis PCI 219 plate (pH 6).
# [8] = test system: Shig. sonnei; assay: MIC by Steers' agar dilution method; format: cell-based; conditions: Shigella sonnei, MHA
# [9] = test system: P. inconstans; assay: MIC by Steers' agar dilution method; conditions: Providencia alcalifaciens
# [10] = test system: Kl. pneumoniae; assay: MIC by Steers' agar dilution method; format: cell-based; conditions: Klebsiella pneumoniae
# [11] = test system: Klebsiella sp.; assay: MIC by Steers' agar dilution method
# [12] = 0.02% solution, pH 4 (0.1 M AcOH - NaOAc buffer)
# [13] = 0.02% solution, pH 7 (0.1 M phosphate buffer)
# [14] = 0.1 m nh4oh-nh4cl buffer, 0.02% solution, pH 9 (0.1 M NH4 OH--NH4 Cl buffer)
# [15] = 10% aqueous solution, room temperature, pH 6.1 (unadjusted)
smiles,measurement,setting,value
"O=C(O)Cn1nc2ccc(SCC3=C(C(=O)O)N4C(=O)C(NC(=O)[C@H](O)c5ccccc5)[C@H]4SC3)nn2c1=O (stereo partly drawn) [BB-S488, 7-(D-Mandelamido)-3-(2-carboxymethyl-2,3-dihydro-s-triazolo[4,3-b]pyridazin-3-on-6-ylthiomethyl)-3-cephem-4-carboxylic Acid]",Nephrotoxicity,[1],No nephrotoxic sign was seen
same,MIC,"[2]; A9553, MHA, Table 1",> 100 µg/mL
same,MIC,"[2]; A20031, MHA, Table 1",0.1 µg/mL
same,MIC,"[2]; Pg-1 A9553 (β-lactamase), HIA, Table 4",> 100 µg/mL
same,MIC,"[2]; Pg-1 A9553 (β-lactamase), MHA, Table 4",> 100 µg/mL
same,MIC,"[2]; Pg-1 A9553 (β-lactamase), NA, Table 4",> 100 µg/mL
same,MIC,"[2]; Pg-1 A9553, MHA, Table 3",> 100 µg/mL
same,MIC,"[2]; Pg-2 A20031, HIA, Table 4",0.2 µg/mL
same,MIC,"[2]; Pg-2 A20031, MHA, Table 3",0.2 µg/mL
same,MIC,"[2]; Pg-2 A20031, MHA, Table 4",0.1 µg/mL
same,MIC,"[2]; Pg-2 A20031, NA, Table 4",0.2 µg/mL
same,MIC,"[2]; Pg-3 A9636, MHA, Table 3",0.8 µg/mL
same,MIC,"[2]; Pg-5 A15166, MHA, Table 3",0.1 µg/mL
same,MIC,"[2]; Pg-6 A20455 (β-lactamase), HIA, Table 4",0.8 µg/mL
same,MIC,"[2]; Pg-6 A20455 (β-lactamase), MHA, Table 4",0.4 µg/mL
same,MIC,"[2]; Pg-6 A20455 (β-lactamase), NA, Table 4",0.4 µg/mL
same,MIC,"[2]; Pg-6 A20455, MHA, Table 3",0.4 µg/mL
same,MIC,"[2]; Pg-7 A20457, MHA, Table 3",0.2 µg/mL
same,MIC,"[2]; Pg-8 A15153, MHA, Table 3",0.1 µg/mL
same,MIC,"[2]; Pg-9 A15149, MHA, Table 3",0.8 µg/mL
same,MIC,"[2]; strain not given (1st of 2), MHA, Example 10",> 100 µg/mL
same,MIC,"[2]; strain not named (2nd of 2), MHA, Example 10",0.2 µg/mL
same,MIC,[3],0.1 µg/mL
same,MIC,"[4]; A15167, MHA, Table 1",0.05 µg/mL
same,MIC,"[4]; MHA, Example 10",0.2 µg/mL
same,MIC,"[4]; Pr-1 A15167, HIA, Table 4",0.1 µg/mL
same,MIC,"[4]; Pr-1 A15167, MHA, Table 3",0.1 µg/mL
same,MIC,"[4]; Pr-1 A15167, MHA, Table 4",0.05 µg/mL
same,MIC,"[4]; Pr-1 A15167, NA, Table 4",0.4 µg/mL
same,MIC,"[4]; Pr-2 A9637, MHA, Table 3",0.1 µg/mL
same,MIC,"[4]; Pr-4 A20645, MHA, Table 3",0.1 µg/mL
same,MIC,"[4]; Pr-5 A20915, MHA, Table 3",0.2 µg/mL
same,MIC,"[4]; Pr-6 A20920, MHA, Table 3",0.1 µg/mL
same,MIC,"[5]; Ba-3 A9504, HIA, Table 4",0.2 µg/mL
same,MIC,"[5]; Ba-3 A9504, MHA, Table 4",0.2 µg/mL
same,MIC,"[5]; Ba-3 A9504, NA, Table 4",0.4 µg/mL
same,MIC,"[5]; MHA, Example 10",0.2 µg/mL
same,concentration at 0.25 h,[6]; sc 10 mg./kg.,5000 ng/mL
same,concentration at 0.5 h,[6]; sc 10 mg./kg.,3000 ng/mL
same,concentration at 1 h,[6]; sc 10 mg./kg.,800 ng/mL
same,concentration at 0.25 h,[6]; sc 20 mg./kg.,7400 ng/mL
same,concentration at 0.5 h,[6]; sc 20 mg./kg.,6000 ng/mL
same,concentration at 1 h,[6]; sc 20 mg./kg.,4300 ng/mL
same,concentration at 2 h,[6]; sc 20 mg./kg.,700 ng/mL
same,concentration at 0.25 h,[6]; sc 40 mg./kg.,19000 ng/mL
same,concentration at 0.5 h,[6]; sc 40 mg./kg.,17000 ng/mL
same,concentration at 1 h,[6]; sc 40 mg./kg.,12000 ng/mL
same,concentration at 2 h,[6]; sc 40 mg./kg.,1600 ng/mL
same,Remaining Activity (%),[7]; [12],100%
same,remaining at 48 h,[7]; [12],93%
same,remaining at 72 h,[7]; [12],78%
same,remaining at 168 h,[7]; [12],102%
same,Remaining Activity (%),[7]; [13],100%
same,remaining at 48 h,[7]; [13],87%
same,remaining at 72 h,[7]; [13],64%
same,remaining at 168 h,[7]; [13],56%
same,Remaining Activity (%),"[7]; 0.02% solution, pH 9 (0.1 M NH4 OH--NH4 Cl buffer)",100%
same,remaining at 24 h,"[7]; 0.1 m nh4oh-nh4cl buffer, 0.02% solution, pH 9 (0.1 M NH4 OH--NH4 Cl buffer), 1 day",20%
same,remaining at 48 h,[7]; [14],14%
same,remaining at 72 h,[7]; [14],13%
same,remaining at 168 h,[7]; [14],0%
same,Remaining Activity (%),[7]; [15],100%
same,remaining at 48 h,[7]; [15],128%
same,remaining at 72 h,[7]; [15],90%
same,remaining at 168 h,[7]; [15],116%
same,MIC,"[8]; A9516, Table 1",0.025 µg/mL
same,MIC,[8]; Example 10,0.05 µg/mL
same,MIC,"[8]; Ss-1 Yale, Table 3",0.1 µg/mL
same,MIC,[9],0.1 µg/mL
same,MIC,"[10]; A9678, MHA, Table 1",3.1 µg/mL
same,MIC,"[10]; A9867, MHA, Table 1",0.2 µg/mL
same,MIC,"[10]; A9977, MHA, Table 1",0.05 µg/mL
same,MIC,"[10]; A15130, MHA, Table 1",0.2 µg/mL
same,MIC,"[10]; Kp-1 D11, MHA, Table 3",0.1 µg/mL
same,MIC,"[10]; Kp-2 A9678, MHA, Table 3",3.1 µg/mL
same,MIC,"[10]; Kp-3 A9977, HIA, Table 4",0.2 µg/mL
same,MIC,"[10]; Kp-3 A9977, MHA, Table 3",0.1 µg/mL
same,MIC,"[10]; Kp-3 A9977, MHA, Table 4",0.2 µg/mL
same,MIC,"[10]; Kp-3 A9977, NA, Table 4",0.4 µg/mL
same,MIC,"[10]; Kp-4 A15130, HIA, Table 4",0.8 µg/mL
same,MIC,"[10]; Kp-4 A15130, MHA, Table 3",0.2 µg/mL
same,MIC,"[10]; Kp-4 A15130, MHA, Table 4",0.4 µg/mL
same,MIC,"[10]; Kp-4 A15130, NA, Table 4",0.8 µg/mL
same,MIC,"[10]; Kp-7 A9867, MHA, Table 3",0.4 µg/mL
same,MIC,"[10]; Kp-8 A20680, MHA, Table 3",25 µg/mL
same,MIC,"[10]; Kp-9 A20636, MHA, Table 3",12.5 µg/mL
same,MIC,"[10]; Kp-10 A20328, MHA, Table 3",6.3 µg/mL
same,MIC,"[10]; Kp-11 A20330, MHA, Table 3",1.6 µg/mL
same,MIC,"[10]; Kp-12 A21228, MHA, Table 3",6.3 µg/mL
same,MIC,"[10]; strain not named (1st of 4), MHA, Example 10",3.1 µg/mL
same,MIC,"[10]; strain not named (2nd of 4), MHA, Example 10",0.1 µg/mL
same,MIC,"[10]; strain not named (3rd of 4), MHA, Example 10",0.4 µg/mL
same,MIC,"[10]; strain not named (4th of 4), MHA, Example 10",0.2 µg/mL
same,MIC,"[11]; Kx-2 A9662, MHA, Table 3",0.4 µg/mL
same,MIC,"[11]; Kx-3 A20346 (β-lactamase), HIA, Table 4",0.2 µg/mL
same,MIC,"[11]; Kx-3 A20346 (β-lactamase), MHA, Table 4",0.2 µg/mL
same,MIC,"[11]; Kx-3 A20346 (β-lactamase), NA, Table 4",0.2 µg/mL
same,MIC,"[11]; Kx-3 A20346, MHA, Table 3",0.2 µg/mL
